The source of these data is US20180203025A1, “HDL THERAPY MARKERS” (Cerenis Therapeutics Holding SA, priority 2014, published 2018).

Assay [1] has as its system SR-BI mRNA in mouse macrophages (J774). Put plainly: SR-BI gene expression (real-time PCR) in J774 macrophages. The format is cell-based. The procedure: J774 were seeded on 6 well plates (300,000 cells/well) and loaded with oxidized-LDL without the use of 3H-cholesterol. […] Gene expression was assayed using the protocols described in Sections 8.3.2 (RNA extraction); 8.3.4 (reverse transcription), and 8.3.5 (qPCR). SR-BI gene expression was determined with Taqman probe Mm00450234.m1 according to the manufacturer's protocol. The reference gene used is HPRT1 (Taqman probe: Mm00446968.m1).
J774 were seeded on 6 well plates (300,000 cells/well) and loaded with oxidized-LDL. […] Gene expression was assayed using the protocols described in Sections 8.3.2 (RNA extraction); 8.3.4 (reverse transcription), and 8.3.5 (qPCR). SR-BI gene (Taqman probe Mm00450234.m1), ABCG1 (Taqman probe Mm00437390.m1), SREBP1 (Taqman probe Mm01138344.m1) and ABCA1 (Taqman probe Mm00442646.m1) expression were determined according to the manufacturer's protocol. […]
J774 were seeded on 6 well plates (600,000 cells/well) in DMEM 10% FCS. […] ABCG1 (Taqman probe Mm00437390.m1), ABCA1 (Taqman probe Mm00442646.m1) and SR-BI (Taqman probe Mm00450234.m1) expression were determined according to the manufacturer's protocol. […]
J774 were seeded on 6 well plates (300,000 cells/well) in DMEM 2.5% FCS. […] ABCA1 (Taqman probe Mm00442646.m1), ABCG1 (Taqman probe Mm00437390.m1), and SR-BI (Taqman probe Mm00450234.m1) expression were determined according to the manufacturer's protocol. […]
A general note: Quantitative PCR measures a nucleic acid by following its amplification.

A further assay deals with SR-BI in mouse liver. In words: SR-BI protein content in mouse liver. The format is in vivo. The settings on record: 24 hours after the last injection; increasing concentrations. How it is done:
This study examined the SR-BI and ABCA1 protein content in the liver 24 hours after the last injection of CER-001. A piece of liver (50 mg) was lysed in PBS (500 μL) by brief sonication. The sample was centrifuged (800×g for 10 minutes) and the pellet was discarded. The supernatant was centrifuged for 30 minutes at 16,000×g at 4° C. and the pellet was solubilized with PBS 1% Triton X100 (200 μL). 10 μg of solubilized pellet was loaded on SDS PAGE 10% and ABCA1 expression (ab7360—dilution 1/1000) or SR-BI expression (ab24603—dilution 1/1000) was quantified using imageJ® software.

The test system of assay [2] is SREBP-2 mRNA in mouse macrophages (J774). In words: SREBP-2 gene expression (real-time PCR) in J774 macrophages. The conditions noted are these: Study P; 0.03 to 30 mM; 6 hours. The format is cell-based. The procedure: The mRNA regulation of those genes expressing ABCA1, ABCG1 and SR-BI is linked to nuclear proteins as LXR, SREBP1 and SREBP2. […] Gene expression was assayed using the protocols described in Sections 8.3.2 (RNA extraction); 8.3.4 (reverse transcription), and 8.3.5 (qPCR). SREBP-1, SREBP-2 and LXR gene expression levels were determined with Taqman probe (Mm01138344.m1, Mm01306292.m1, Mm00443451.m1 respectively) according to the manufacturer's protocol. The reference gene used is HPRT1 (Taqman probe: Mm00446968.m1).
This study used β-cyclodextrin to examine the effect of β-cyclodextrin on LXR, SREBP1 and SREBP2 mRNA expression in J774 macrophages. J774 were seeded on 6 well plates (300,000 cells/well). β-cyclodextrin (0.03, 0.1, 0.3, 1, 3, 10 and 30 mM) was added for 6 hours on the macrophages and the RNA were extracted with the RiboPure™ kit according to the manufacturer's protocol. Gene expression was assayed using the protocols described in Sections 8.3.2 (RNA extraction); 8.3.4 (reverse transcription), and 8.3.5 (qPCR). SREBP-1, SREBP-2 and LXR gene expression were determined with Taqman probe (Mm01138344.m1, Mm01306292.m1, Mm00443451.m1 respectively) according to the manufacturer's protocol. The reference gene used is HPRT1 (Taqman probe: Mm00446968.m1).

In the case of “CER-001: engineered recombinant human apolipoprotein A-I HDL with sphingomyelin and DPPG; protein-to-phospholipid ratio 1:2.7, 97% Sph and 3% DPPG”, the “SR-BI mRNA level” value in assay [1] (Study J, 24 hours treatment, 250 μg/mL) is given as “do not change the mRNA level of SR-BI”. Also, the “liver SR-BI protein level” value in the assay on SR-BI in mouse liver is listed as “no significant changes”.
In the case of `OC[C@H]1O[C@@H]2O[C@H]3[C@H](O)[C@@H](O)[C@@H](O[C@H]4[C@H](O)[C@@H](O)[C@@H](O[C@H]5[C@H](O)[C@@H](O)[C@@H](O[C@H]6[C@H](O)[C@@H](O)[C@@H](O[C@H]7[C@H](O)[C@@H](O)[C@@H](O[C@H]8[C@H](O)[C@@H](O)[C@@H](O[C@H]1[C@H](O)[C@H]2O)O[C@@H]8CO)O[C@@H]7CO)O[C@@H]6CO)O[C@@H]5CO)O[C@@H]4CO)O[C@@H]3CO` [β-cyclodextrin, reference compound], the “SREBP-2 mRNA” value in assay [2] was “increased for the lowest dose of β-cyclodextrin and reached a plateau”. Further, in assay [1] (Study O, 0.03 to 30 mM, 6 hours), the “SR-BI mRNA level” value is on record as “dose-dependent increase”.
